# According to patent publication US20230340406A1, “METHODS AND COMPOSITIONS FOR PRODUCING STEM CELL DERIVED SPINAL GABA INHIBITORY NEURONS FOR USE IN TREATMENT OF SPINAL CORD INJURY” (BrainXell, Inc., priority 2020, published 2023):
# Tested on: SCI model in rats
# Test: Spasticity: amplitude of the Hoffman reflex (H-reflex)
# Type: in vivo, rat
# Conditions: for H % following CNO: 12 weeks
# Excerpt: Taking advantage of the DREADD-expressing neural cells we transplanted, we asked if the therapeutic effects depend on the activity of the grafted cells.
smiles,measurement,setting,value
C[N+]1([O-])CCN(C2=Nc3cc(Cl)ccc3Nc3ccccc32)CC1 [CNO],H % following CNO injection,"cell-transplanted rats (DREADD-expressing cells), 3 mg/kg, 6 weeks, 2 Hz",47%±4.12%
same,decrease of H % following CNO injection,"cell-transplanted rats, 3 mg/kg, 6 weeks, 1 Hz",not at 1 Hz
same,H % following CNO injection,"cell-transplanted rats, 3 mg/kg, 6 weeks, 5 Hz",28.21%±5.63%
same,H % following CNO,"cell-transplanted rats, 1 Hz",26.05%±5.64%
same,H % following CNO,"cell-transplanted rats, 2 Hz",17.57%±4.98%
same,H % following CNO,"cell-transplanted rats, 5 Hz",9.09%±1.52%
same,change of H % in response to CNO treatment,"control animals: sham operation, SCI, SCI injected with medium",did not show any changes
